According to ChEMBL document CHEMBL1156341, “Synthesis of new artemisinin analogues from artemisinic acid modified at C-3 and C-13 and their antimalarial activity” (J Nat Prod, 2001):
In brackets after ≈: the same amount, converted by molar mass.

Key:
Plasmodium falciparum [1] = assay: Antimalarial activity against chloroquine-sensitive Plasmodium falciparum D6; type: functional, organism-based
Plasmodium falciparum [2] = assay: Antimalarial activity against chloroquine-resistant Plasmodium falciparum W2; type: functional, organism-based
[3] = Cytotoxicity against human vinblastine-resistant KBVIN cells in presence of vinblastine; type: functional, cell-based

SMILES	IC50 (Plasmodium falciparum [1]) [ng/mL]	IC50 (Plasmodium falciparum [2]) [ng/mL]	IC50 [3] [ng/mL]
C[C@@H]1CC[C@H]2[C@@H](CC#N)C(=O)O[C@@H]3O[C@@]4(C)CC[C@@H]1[C@]32OO4	18.4 (≈ 0.0599 µM)	8.4 (≈ 0.0273 µM)	
COC(=O)C[C@H]1C(=O)O[C@@H]2O[C@@]3(C)CC[C@H]4[C@H](C)CC[C@@H]1[C@@]24OO3	46 (≈ 0.135 µM)	33 (≈ 0.097 µM)	
CC(=O)O[C@@H]1C[C@H]2[C@H](C)CC[C@H]3[C@@H](C)C(=O)O[C@@H]4O[C@]1(C)OO[C@]423	11.1 (≈ 0.0326 µM)	2.07 (≈ 0.00608 µM)	
COC[C@H]1C(=O)O[C@@H]2O[C@@]3(C)CC[C@H]4[C@H](C)CC[C@@H]1[C@@]24OO3	75 (≈ 0.24 µM)	59 (≈ 0.189 µM)	
C[C@@H]1CC[C@H]2C(=C3CC3)C(=O)O[C@@H]3O[C@@]4(C)CC[C@@H]1[C@]32OO4	6.2 (≈ 0.0202 µM)	4.3 (≈ 0.014 µM)	
C[C@@H]1CC[C@H]2[C@@H](CC[N+](=O)[O-])C(=O)O[C@@H]3O[C@@]4(C)CC[C@@H]1[C@]32OO4	0.68 (≈ 0.00199 µM)	0.26 (≈ 0.000762 µM)	5.1
CCS(=O)(=O)C[C@H]1C(=O)O[C@@H]2O[C@@]3(C)CC[C@H]4[C@H](C)CC[C@@H]1[C@@]24OO3	> 500	> 500	
C[C@@H]1CC[C@H]2[C@@H](C)C(=O)O[C@@H]3O[C@@]4(C)CC[C@@H]1[C@]32OO4 [ARTEMISININ]		0.2 (≈ 0.000708 µM)	
OC(c1cc(C(F)(F)F)nc2c(C(F)(F)F)cccc12)C1CCCCN1 (centres undefined) [MEFLOQUINE]		3.6 (≈ 0.00952 µM)	
C=C[C@H]1CN2CC[C@H]1C[C@H]2[C@H](O)c1ccnc2ccc(OC)cc12 [QUININE]	19.6 (≈ 0.0604 µM)	102 (≈ 0.314 µM)	
